Measurements: article PMC6514978, “Synthesis, Antibacterial Activities, Mode of Action and Acute Toxicity Studies of New Oxazolidinone-Fluoroquinolone Hybrids” (Molecules, 2019)
≈ marks a conversion by molar mass, not a printed value.

Key:
VRE (13B330) = assay: MIC, broth microdilution (CLSI), clinical isolate; assay type: cell-based, vancomycin-resistant enterococcus; settings: Enterococcus
Text: (§1) 6 standard strains and 3 clinical isolates were used to the preliminary evaluation of in vitro antibacterial activities of oxazolidinone-fluoroquinolone hybrids. For the further evaluation of hybrids OBP-4 and OBP-5, 263 clinical isolates including S. aureus (46), S. haemolyticus(32), S. epidermidis (10), E. faecalis (72), E. faecium (47), S. pneumoniae (13), H. parasuis (34), S. suis (9), and 8 resistant strains including MRSA, MRSE, CIP-resistant S. aureus and S. haemolyticus, VAN and quinolone-resistant S. pneumoniae, LZD-resistant E. faecalis, LZD/VAN and quinolone-resistant E. faecium were collected and tested.
(§2) Susceptibility testing of oxazolidinone-fluoroquinolone hybrids against various bacteria was performed by the broth microdilution method as outlined by the Clinical and Laboratory Standards Institute (CLSI). Three types of media, including cation-adjusted Mueller Hinton broth, Haemophilus Test Medium and cation-adjusted Mueller Hinton broth that contained 3%–5% lysed horse blood, were used to culture the corresponding bacteria. All compounds including comparator drugs were dissolved in an appropriate solvent at a concentration of 2.048 mg/mL and then serially diluted two-fold to provide the required concentrations. A final inoculum of 5 × 10^5 CFU/mL was used and plates were read after incubation for 16–24 h at 35 °C. […] Standard quality control strains (ATCC) were included throughout. Each determination was repeated in triplicate.

E. coli (ATCC25922) = assay: MIC, broth microdilution (CLSI), standard strain; assay type: cell-based; settings: Escherichia coli; E. coli (ATCC25922); read-out: MIC
Text: as §1, §2

E. faecalis (ATCC29212) = assay: MIC, broth microdilution (CLSI), standard strain; assay type: cell-based; settings: Enterococcus faecalis; E. faecalis (ATCC29212); read-out: MIC
Text: as §1, §2

[1] = test system: H. influenzae (ATCC49247); assay: MIC, broth microdilution (CLSI), standard strain; assay type: cell-based; settings: Haemophilus influenzae
Text: as §1, §2

[2] = test system: P. Aeruginosa (ATCC27853); assay: MIC, broth microdilution (CLSI), standard strain; assay type: cell-based; settings: Pseudomonas aeruginosa; P. Aeruginosa (ATCC27853); read-out: MIC
Text: as §1, §2

S. aureus (ATCC29213) = assay: MIC, broth microdilution (CLSI), standard strain; assay type: cell-based; settings: Staphylococcus aureus
Text: as §1, §2

[3] = test system: S. pneumoniae (ATCC49619); assay: MIC, broth microdilution (CLSI), standard strain; assay type: cell-based; settings: Streptococcus pneumoniae
Text: as §1, §2

[4] = test system: S. epidermidis (10) clinical isolates; assay: Susceptibility of clinical isolates (MIC); assay type: cell-based, Staphylococcus epidermidis
Method: as §2, with “All compounds including comparator drugs were dissolved in an appropriate solvent at a concentration of 2.048 mg/mL and then serially diluted two-fold to provide the required concentrations.” left out

[5] = test system: S. suis (9) clinical isolates; assay: Susceptibility of clinical isolates (MIC); assay type: cell-based, Streptococcus suis; settings: for Cumulative % of strains inhibited at MIC / No. of strains inhibited at MIC: S. suis (9)
Method: as §2, with “All compounds including comparator drugs were dissolved in an appropriate solvent at a concentration of 2.048 mg/mL and then serially diluted two-fold to provide the required concentrations.” left out

[6] = test system: E. faecalis (72) clinical isolates; assay: Susceptibility of clinical isolates (MIC); assay type: cell-based, Enterococcus faecalis; settings: for Cumulative % of strains inhibited at MIC / No. of strains inhibited at MIC: E. faecalis (72)
Method: as §2, with “All compounds including comparator drugs were dissolved in an appropriate solvent at a concentration of 2.048 mg/mL and then serially diluted two-fold to provide the required concentrations.” left out

[7] = test system: E. faecium (47) clinical isolates; assay: Susceptibility of clinical isolates (MIC); assay type: cell-based, Enterococcus faecium; settings: for Cumulative % of strains inhibited at MIC / No. of strains inhibited at MIC: E. faecium (47)
Method: as §2, with “All compounds including comparator drugs were dissolved in an appropriate solvent at a concentration of 2.048 mg/mL and then serially diluted two-fold to provide the required concentrations.” left out

[8] = test system: H. parasuis (34) clinical isolates; assay: Susceptibility of clinical isolates (MIC); assay type: cell-based, Haemophilus parasuis; settings: for Cumulative % of strains inhibited at MIC / No. of strains inhibited at MIC: H. parasuis (34)
Method: as §2, with “All compounds including comparator drugs were dissolved in an appropriate solvent at a concentration of 2.048 mg/mL and then serially diluted two-fold to provide the required concentrations.” left out

[9] = test system: LZD-resistant E. faecalis; assay: microbe, parasite or virus in culture; assay type: cell-based; settings: Enterococcus faecalis
Method: 6 standard strains and 3 clinical isolates were used to the preliminary evaluation of in vitro antibacterial activities of oxazolidinone-fluoroquinolone hybrids.
as §2, with “All compounds including comparator drugs were dissolved in an appropriate solvent at a concentration of 2.048 mg/mL and then serially diluted two-fold to provide the required concentrations.” left out

[10] = test system: protein synthesis (E. coli extract-based cell-free protein expression system); assay: In vitro transcription/translation assay (S30 T7 cell-free system, Renilla luciferase); assay type: biochemical
Method: The influence of hybrids OBP-4 and OBP-5 against protein synthesis was confirmed by the S30 T7 High-Yield Protein Expression System (Promega Co., Ltd.). The S30 T7 High-Yield Protein Expression System is an E. coli extract-based cell-free protein expression system, which can effectively transcribe and translate DNA fragments with a T7 promoter. The reaction system containing 1 μg plasmid DNA, 20 μL S30 Premix Plus and 18 μL T7 S30 Extract with or without compounds was incubated for 1 h at 37 °C with a rotational speed of 250 rpm, and terminated by cooling in ice for 5 min in a 96-well white multi-well plate. Then, 1.25 μL of the translation reaction mixture was added to 48.75 μL of Renilla Luciferase Assay Lysis Buffer, and mixed with 50 μL of Renilla Luciferase Assay Reagent (cat no. E2810; Promega). Renilla luciferase activity was measured on EnSpire® Multimode Plate Reader (PerkinElmer, Waltham, MA, USA). […] LZD was used as a positive control.

[11] = Enterococcus faecalis, E. faecalis, 72 clinical isolates

## CC1Sc2c(C(=O)O)c(=O)c3cc(F)c(N4CCC(O)(COc5ccc(N6C[C@H](CO)OC6=O)cc5F)CC4)cc3n21 (some centres unmarked) [OBP-5]
VRE (13B330)
  MIC: 0.5 mg/L (≈ 0.828 µM)
E. coli (ATCC25922)
  MIC: 4 mg/L (≈ 6.63 µM)
E. faecalis (ATCC29212)
  MIC: 1 mg/L (≈ 1.66 µM)
[1]
  MIC: 0.25 mg/L (≈ 0.414 µM)
[2]
  MIC: 64 mg/L (≈ 106 µM)
S. aureus (ATCC29213)
  MIC: 0.25 mg/L (≈ 0.414 µM)
[3]
  MIC: 0.062 mg/L (≈ 0.103 µM)
[4]; S. epidermidis (10), MIC 0.125 µg/mL
  No. of strains inhibited at MIC: 2
[4]; S. epidermidis (10), MIC ≤[…]
  Cumulative % of strains inhibited at MIC: 80.0%
  No. of strains inhibited at MIC: 8
[4]; Staphylococcus epidermidis, S. epidermidis, 10 clinical isolates, read-out: MIC50
  MIC50: ≤ 0.0625 mg/L
[4]; Staphylococcus epidermidis, S. epidermidis, 10 clinical isolates, read-out: MIC90
  MIC90: 0.125 mg/L (≈ 0.207 µM)
[4]; Staphylococcus epidermidis, S. epidermidis, 10 clinical isolates, read-out: MIC Range
  MIC: 0.0625 to 0.125 mg/L (≈ 0.104 to 0.207 µM)
[5]; MIC 0.125 µg/mL
  Cumulative % of strains inhibited at MIC: 88.9%
  No. of strains inhibited at MIC: 3
[5]; MIC 2 µg/mL
  Cumulative % of strains inhibited at MIC: 100%
  No. of strains inhibited at MIC: 1
[5]; MIC ≤[…]
  Cumulative % of strains inhibited at MIC: 55.6%
  No. of strains inhibited at MIC: 5
[5]; Streptococcus suis, S. suis, 9 clinical isolates, read-out: MIC50
  MIC50: ≤ 0.0625 mg/L
[5]; Streptococcus suis, S. suis, 9 clinical isolates, read-out: MIC90
  MIC90: 0.125 mg/L (≈ 0.207 µM)
[5]; Streptococcus suis, S. suis, 9 clinical isolates, read-out: MIC Range
  MIC: 0.0625 to 2 mg/L (≈ 0.104 to 3.31 µM)
[6]; MIC 0.125 µg/mL
  Cumulative % of strains inhibited at MIC: 91.7%
  No. of strains inhibited at MIC: 49
[6]; MIC 0.5 µg/mL
  Cumulative % of strains inhibited at MIC: 100.0%
  No. of strains inhibited at MIC: 1
[6]; MIC […]
  Cumulative % of strains inhibited at MIC: 98.6%
  No. of strains inhibited at MIC: 5
[6]; MIC ≤[…]
  Cumulative % of strains inhibited at MIC: 23.6%
  No. of strains inhibited at MIC: 17
[6]; E. faecalis clinical isolates
  fold higher activity than comparator agents: 2- to 16 fold
[6]; E. faecalis, 72 clinical isolates
  MIC Range: ≤0.0625 to 0.5 mg/L
[6]; [11]
  MIC50: 0.125 mg/L (≈ 0.207 µM)
  MIC90: 0.125 mg/L (≈ 0.207 µM)
[7]; MIC 0.125 µg/mL
  Cumulative % of strains inhibited at MIC: 21.3%
  No. of strains inhibited at MIC: 7
[7]; MIC 0.5 µg/mL
  Cumulative % of strains inhibited at MIC: 97.9%
  No. of strains inhibited at MIC: 3
[7]; MIC 1 µg/mL
  Cumulative % of strains inhibited at MIC: 100.0%
  No. of strains inhibited at MIC: 1
[7]; MIC […]
  Cumulative % of strains inhibited at MIC: 91.5%
  No. of strains inhibited at MIC: 33
[7]; MIC ≤[…]
  Cumulative % of strains inhibited at MIC: 6.4%
  No. of strains inhibited at MIC: 3
[7]; E. faecium clinical isolates
  fold higher activity than comparator agents: 16- to 128 fold
[7]; E. faecium, 47 clinical isolates
  MIC Range: ≤0.0625 to 1 mg/L
[7]; Enterococcus faecium, E. faecium, 47 clinical isolates, read-out: MIC50
  MIC50: 0.25 mg/L (≈ 0.414 µM)
[7]; Enterococcus faecium, E. faecium, 47 clinical isolates, read-out: MIC90
  MIC90: 0.25 mg/L (≈ 0.414 µM)
[8]; Glaesserella parasuis, H. parasuis, 34 clinical isolates, read-out: MIC50
  MIC50: 0.5 mg/L (≈ 0.828 µM)
[8]; Glaesserella parasuis, H. parasuis, 34 clinical isolates, read-out: MIC90
  MIC90: 2 mg/L (≈ 3.31 µM)
[8]; MIC 0.125 µg/mL
  Cumulative % of strains inhibited at MIC: 17.6%
  No. of strains inhibited at MIC: 1
[8]; MIC 0.5 µg/mL
  Cumulative % of strains inhibited at MIC: 47.1%
  No. of strains inhibited at MIC: 6
[8]; MIC 1 µg/mL
  Cumulative % of strains inhibited at MIC: 67.6%
  No. of strains inhibited at MIC: 7
[8]; MIC 2 µg/mL
  Cumulative % of strains inhibited at MIC: 97.1%
  No. of strains inhibited at MIC: 10
[8]; MIC 4 µg/mL
  Cumulative % of strains inhibited at MIC: 100.0%
  No. of strains inhibited at MIC: 1
[8]; MIC […]
  Cumulative % of strains inhibited at MIC: 29.4%
  No. of strains inhibited at MIC: 4
[8]; MIC ≤[…]
  Cumulative % of strains inhibited at MIC: 14.7%
  No. of strains inhibited at MIC: 5
[8]; H. parasuis, 34 clinical isolates
  MIC Range: ≤0.0625 to 4 mg/L
[9]
  MIC: 0.25 mg/L (≈ 0.414 µM)
[10]; E. coli S30 T7 cell-free transcription/translation, 1 h, 37 °C, read-out: IC50 Inhib. of Protein Synthesis
  IC50: 2 µM
[10]; relative to IC50 of LZD
  protein synthesis inhibition, fold greater than LZD: 2.5 fold
